Laboratory results published in US10167279B2 (NOVARTIS AG, priority 2014, dated 2019).

What was measured:
[1] = target: b-Raf (V600E) (Homo sapiens (Human), UniProt P15056, V600E); assay: In vitro Raf activity determination (Alpha Screen, phospho-MEK), b-Raf (V600E); assay type: biochemical; conditions: ATP 10 μM, 60 min pre-incubation, 3 hours reaction
Source text: The activity of a compound according to the present invention can be assessed by well-known in vitro & in vivo methods. Raf inhibition data provided herein was obtained using the following procedures.
Sf9 cells co-expressing both proteins were lysed and subjected to immobilized nickel chromatography and eluted with Imidazole. A second column (StrepII binding column) was used and eluted with desthiobiotin. Protein Tags were removed using Prescission enzyme and the protein was further purified using a flowthrough step to remove tags.
Full length MEK1 with an inactivating K97R ATP binding site mutation is utilized as a RAF substrate. The MEK1 cDNA was subcloned with an N-terminal (his)6 tag into a vector for E. Coli expression. The MEK1 substrate was purified from E. Coli lysate by nickel affinity chromatography followed by anion exchange. The final MEK1 preparation was biotinylated (Pierce EZ-Link Sulfo-NHS-LC-Biotin) and concentrated.
The plate was incubated for 60 minutes at room temperature. […] The additions were carried out under dark conditions to protect the detection beads from light. A lid was placed on top of the plate and incubated for 1 hour at room temperature, after which the luminescence was read on a PerkinElmer Envision instrument.

[2] = target: C-Raf FL (Homo sapiens (Human), UniProt P04049, Y340E/Y341E); assay: In vitro Raf activity determination (Alpha Screen, phospho-MEK), C-Raf FL (full length, Y340E/Y341E); assay type: biochemical; conditions: ATP 1 μM; 60 min pre-incubation; 1 hour reaction; column head does not say FL or TR
Method in brief: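 Sf9-expressed C-Raf incubated with biotinylated kinase-dead MEK1 (K97R) in 50 mM Tris pH 7.5, 15 mM MgCl2, 0.01% BSA, 1 mM DTT with compound, 60 min at room temperature. Phospho-MEK detected by anti-p-MEK AlphaScreen luminescence; IC50 by non-linear regression.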

Sequence of C-Raf FL (P04049 whole entry Y340E/Y341E): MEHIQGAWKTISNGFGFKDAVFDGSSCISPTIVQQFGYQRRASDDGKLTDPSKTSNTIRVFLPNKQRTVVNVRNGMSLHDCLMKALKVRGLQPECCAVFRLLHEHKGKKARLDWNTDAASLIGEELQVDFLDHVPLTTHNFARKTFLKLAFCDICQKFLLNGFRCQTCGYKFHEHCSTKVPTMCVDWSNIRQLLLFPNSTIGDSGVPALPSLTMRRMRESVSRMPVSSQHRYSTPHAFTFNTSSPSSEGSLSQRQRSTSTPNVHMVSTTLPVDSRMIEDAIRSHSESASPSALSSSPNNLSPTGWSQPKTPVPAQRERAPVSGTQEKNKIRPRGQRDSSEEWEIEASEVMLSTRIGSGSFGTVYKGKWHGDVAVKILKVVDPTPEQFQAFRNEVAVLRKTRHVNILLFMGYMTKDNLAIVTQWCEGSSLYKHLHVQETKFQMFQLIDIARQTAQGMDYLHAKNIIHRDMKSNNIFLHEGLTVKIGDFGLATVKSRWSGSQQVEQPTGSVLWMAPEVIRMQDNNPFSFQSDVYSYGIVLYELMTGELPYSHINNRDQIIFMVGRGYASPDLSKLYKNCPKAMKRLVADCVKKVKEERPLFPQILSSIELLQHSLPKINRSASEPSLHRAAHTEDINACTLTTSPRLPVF
Sequence of C-Raf FL (P63104 whole entry partner): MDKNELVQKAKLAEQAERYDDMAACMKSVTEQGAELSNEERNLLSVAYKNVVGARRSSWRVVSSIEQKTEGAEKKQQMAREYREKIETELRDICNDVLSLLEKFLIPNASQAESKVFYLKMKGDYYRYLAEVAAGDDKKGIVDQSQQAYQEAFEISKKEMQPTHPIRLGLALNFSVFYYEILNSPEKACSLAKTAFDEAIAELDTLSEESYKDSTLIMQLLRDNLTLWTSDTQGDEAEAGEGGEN
Sequence of b-Raf (V600E) (P15056 whole entry V600E): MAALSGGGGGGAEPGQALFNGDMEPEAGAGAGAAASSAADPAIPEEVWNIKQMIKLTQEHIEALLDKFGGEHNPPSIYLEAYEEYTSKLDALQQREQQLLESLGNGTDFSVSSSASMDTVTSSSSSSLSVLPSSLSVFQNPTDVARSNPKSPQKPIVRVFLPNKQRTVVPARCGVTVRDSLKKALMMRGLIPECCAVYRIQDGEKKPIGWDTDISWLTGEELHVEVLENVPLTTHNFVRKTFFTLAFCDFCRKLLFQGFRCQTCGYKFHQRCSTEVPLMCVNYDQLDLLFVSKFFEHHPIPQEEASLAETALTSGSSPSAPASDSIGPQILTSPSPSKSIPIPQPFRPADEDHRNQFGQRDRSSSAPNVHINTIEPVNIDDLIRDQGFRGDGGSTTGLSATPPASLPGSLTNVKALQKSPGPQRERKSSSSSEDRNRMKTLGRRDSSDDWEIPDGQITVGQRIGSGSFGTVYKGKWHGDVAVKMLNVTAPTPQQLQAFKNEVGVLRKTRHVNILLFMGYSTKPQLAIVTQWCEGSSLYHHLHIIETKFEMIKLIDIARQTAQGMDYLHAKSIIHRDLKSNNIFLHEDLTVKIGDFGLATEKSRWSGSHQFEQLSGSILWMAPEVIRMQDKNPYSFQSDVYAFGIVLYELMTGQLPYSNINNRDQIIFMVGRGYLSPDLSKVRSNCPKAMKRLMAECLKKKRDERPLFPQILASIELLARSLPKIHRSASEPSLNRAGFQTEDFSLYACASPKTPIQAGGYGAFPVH

## COc1ncc(-c2cc(NC(=O)c3cc(C(C)(C)F)ccn3)ccc2C)cc1C1(O)COC1 [Example 95, 4-(2-fluoropropan-2-yl)-N-(3-(5-(3-hydroxyoxetan-3-yl)-6-methoxypyridin-3-yl)-4-methylphenyl)picolinamide]
[1]
  IC50: 3.92 nM
[2]
  IC50: 0.514 nM

## COc1ncc(-c2cc(NC(=O)c3ccnc(C(C)(C)F)c3)cnc2C)cc1C1(C(F)F)COC1 [Example 42, N-(5′-(3-(difluoromethyl)oxetan-3-yl)-6′-methoxy-2-methyl-[3,3′-bipyridin]-5-yl)-2-(2-fluoropropan-2-yl)isonicotinamide]
[1]
  IC50: 1.42 nM
[2]
  IC50: 0.243 nM

## CCOc1ncc(-c2cc(NC(=O)c3cnnc(C(F)(F)F)c3)cnc2C)cc1C1(C)COC1 [Example 66, N-(6′-ethoxy-2-methyl-5′-(3-methyloxetan-3-yl)-[3,3′-bipyridin]-5-yl)-6-(trifluoromethyl)pyridazine-4-carboxamide]
[1]
  IC50: 1.45 nM
[2]
  IC50: 0.258 nM

## COc1ncc(-c2cc(NC(=O)c3cc(C(C)(C)N)cc(C(F)(F)F)c3)cnc2C)cc1C1(CF)COC1 [Example 109, 3-(2-aminopropan-2-yl)-N-(5′-(3-(fluoromethyl)oxetan-3-yl)-6′-methoxy-2-methyl-[3,3′-bipyridin]-5-yl)-5-(trifluoromethyl)benzamide]
[1]
  IC50: 9.5 nM
[2]
  IC50: 2.24 nM

## COc1ncc(-c2cc(NC(=O)c3ccnc(C(C)(F)F)c3)cnc2C)cc1C1(C#N)COC1 [Example 116, N-(5′-(3-cyanooxetan-3-yl)-6′-methoxy-2-methyl-[3,3′-bipyridin]-5-yl)-2-(1,1-difluoroethyl)isonicotin-amide]
[1]
  IC50: 6.22 nM
[2]
  IC50: 1.25 nM

## COc1ncc(-c2cc(NC(=O)c3cc(C(C)(C)C#N)ccn3)ccc2C)cc1C1(O)COC1 [Example 85, 4-(2-cyanopropan-2-yl)-N-(3-(5-(3-hydroxyoxetan-3-yl)-6-methoxypyridin-3-yl)-4-methylphenyl)picolinamide]
[1]
  IC50: 6.47 nM
[2]
  IC50: 1.17 nM

## COc1ncc(-c2cc(NC(=O)c3cc(C(F)(F)F)ccn3)ccc2C)cc1C1(F)COC1 [Example 88, N-(3-(5-(3-fluorooxetan-3-yl)-6-methoxypyridin-3-yl)-4-methylphenyl)-4-(trifluoromethyl)picolin-amide]
[1]
  IC50: 0.934 nM
[2]
  IC50: 0.303 nM

## CCC(F)(F)c1cc(C(=O)Nc2cnc(C)c(-c3cnc(OC)c(C4(C#N)COC4)c3)c2)ccn1 [Example 117, N-(5′-(3-cyanooxetan-3-yl)-6′-methoxy-2-methyl-[3,3′-bipyridin]-5-yl)-2-(1,1-difluoropropyl)isonicotin-amide]
[1]
  IC50: 7.19 nM
[2]
  IC50: 1.43 nM

## Cc1ncc(NC(=O)c2cccc(C(F)(F)F)c2)cc1-c1cccc(C2(C)COC2)c1 [Example 24]
[1]
  IC50: 3.52 nM
[2]
  IC50: 0.455 nM

## COc1ncc(-c2cc(NC(=O)c3ccnc(C(C)(C)F)c3)ccc2C)cc1C1(C#N)COC1 [Example 111, N-(3-(5-(3-cyanooxetan-3-yl)-6-methoxypyridin-3-yl)-4-methylphenyl)-2-(2-fluoropropan-2-yl)isonicotinamide]
[1]
  IC50: 2.75 nM
[2]
  IC50: 0.716 nM

## COc1ncc(-c2cc(NC(=O)c3cc(C(F)(F)F)ccn3)cnc2C)cc1C1(O)COC1 [Example 78, N-(5′-(3-hydroxyoxetan-3-yl)-6′-methoxy-2-methyl-[3,3′-bipyridin]-5-yl)-4-(trifluoromethyl)picolin-amide]
[1]
  IC50: 23.5 nM
[2]
  IC50: 3.23 nM

## CCOc1ncc(-c2cc(NC(=O)c3cnnc(C(F)(F)F)c3)ccc2C)cc1C1(C)COC1 [Example 67, N-(3-(6-ethoxy-5-(3-methyloxetan-3-yl)pyridin-3-yl)-4-methylphenyl)-6-(trifluoromethyl)pyridazine-4-carboxamide]
[1]
  IC50: 0.304 nM
[2]
  IC50: 0.078 nM

## Cc1ncc(NC(=O)c2ccnc(C(C)(C)F)c2)cc1-c1cccc(C2(C)COC2)c1 [Example 69, 2-(2-fluoropropan-2-yl)-N-(6-methyl-5-(3-(3-methyloxetan-3-yl)phenyl)pyridin-3-yl)isonicotinamide]
[1]
  IC50: 5.1 nM
[2]
  IC50: 0.895 nM
